# Source: PubChem BioAssay (NCI)
# Values joined by “and” are separate entries in the source; they are usually repeats but may differ in a detail not shown here. Equal entries are not always repeated.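 All cell lines were grown in 96-well plates and treated with compound for 48 hours. GI50: concentration for 50% inhibition of growth. Definition used: TGI = concentration required for complete inhibition of growth.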 Where a SMILES comes first, the peptide text is derived from it. The star is where a group is joined. Boc = CC(C)(C)OC(=O)*; OBn = c1ccc(CO*)cc1
# Experiments:
# Assay in all cases: NCI tumour cell line growth inhibition, 48 h
# MCF7 breast = test system: MCF7 breast
# COLO 205 colon = test system: COLO 205 colon
# OVCAR-4 ovarian = test system: OVCAR-4 ovarian
# OVCAR-5 ovarian = test system: OVCAR-5 ovarian
# UACC-62 melanoma = test system: UACC-62 melanoma
# HOP-92 NSCLC = test system: HOP-92 NSCLC
# UACC-257 melanoma = test system: UACC-257 melanoma
# NCI/ADR-RES ovarian = test system: NCI/ADR-RES ovarian
# KM12 colon = test system: KM12 colon
# K-562 leukemia = test system: K-562 leukemia
Compound,TGI (MCF7 breast) [µM],TGI (COLO 205 colon) [µM],TGI (OVCAR-4 ovarian) [µM],TGI (OVCAR-5 ovarian) [µM],TGI (UACC-62 melanoma) [µM],TGI (HOP-92 NSCLC) [µM],TGI (UACC-257 melanoma) [µM],TGI (NCI/ADR-RES ovarian) [µM],TGI (KM12 colon) [µM],TGI (K-562 leukemia) [µM],GI50 (MCF7 breast) [µM],GI50 (COLO 205 colon) [µM],GI50 (K-562 leukemia),GI50 (OVCAR-4 ovarian) [µM],GI50 (OVCAR-5 ovarian) [µM],GI50 (UACC-62 melanoma) [µM],GI50 (HOP-92 NSCLC),GI50 (NCI/ADR-RES ovarian) [µM],GI50 (KM12 colon),GI50 (UACC-257 melanoma) [µM]
CS[C@]12[C@@H]3C(=O)N(C)C(=O)[C@@H]3[C@](C)(C(=O)N1C)C(=O)N2c1ccccc1,> 100,> 100,> 100,> 100,> 100,> 100,> 100,> 100,> 100,–,–,–,–,–,–,–,–,–,–,–
Cc1ccc(N(O)C(C)(C)C)cc1,> 100,> 100,> 100,> 100,> 100,> 100,> 100,> 100,> 100,> 100,–,–,–,–,–,–,–,–,–,–
CCCCCCCCCC(=O)N[C@@H](c1ccco1)[C@@H](O)C(=O)O[C@H]1C[C@@]2(O)[C@@H](OC(=O)c3ccccc3)[C@@H]3[C@]4(OC(C)=O)CO[C@@H]4C[C@H](O)[C@@]3(C)C(=O)[C@H](OC(C)=O)C(=C1C)C2(C)C,1.81,0.0335,> 24.7,0.151,9.53,21.2,11.7,20.5,8.44,> 50,–,–,–,–,–,–,–,–,–,–
C=C(C)C1CC/C(C)=C/CC[C@]2(C)O[C@@H]2CCC2=CC1OC2=O (stereo partly specified),> 100,> 100,> 100,> 100,> 100,> 100,–,> 100,> 100,27.7,> 100,> 100,14.6 µM,> 100,0.635,78.8,14.4 µM,> 100,21.6 µM,–
COC(=O)CCc1c(Cc2ccc[nH]2)[nH]c(C(=O)OCc2ccccc2)c1C,35.7,32.9,34,> 100,66.8,51.4,38.9,52.1,35.7,58.5,–,–,–,–,–,–,–,–,–,–
Nc1nccc(NCC2(CO)CCC2)n1,> 100,> 100,–,> 100,> 100,> 100,> 100,> 100,> 100,> 100,–,–,–,–,–,–,–,–,–,–
CO[C@H]1O[C@@H]2CO[C@@H](c3ccccc3)O[C@H]2[C@@H]2C/C=C\CCC[C@@]12O,44.9,33.6,> 100,52.5,30.7,43.7,43.2,88.3,54.9,51.1,–,–,–,–,–,–,–,–,–,–
CCOc1ccc(N=NC2C(=O)N(C(=O)CC(=O)Nc3ccccc3)N=C2C)cc1 (stereo unspecified),> 100,> 100,> 100,> 100,> 100,90.7,> 100,> 100,> 100,–,–,–,–,–,–,–,–,–,–,–
CC(C)CC(NC(=O)OC(C)(C)C)C(=O)NC(CC(=O)OCc1ccccc1)C(=O)OCc1ccccc1 (stereo not drawn) (Boc-Leu-Asp(OBn)-OBn; configuration not given here),> 100,> 100,–,> 100,45.9,> 100,> 100,> 100,> 100,> 100,–,–,–,–,–,–,–,–,–,–
O=C1CC(C(OCc2ccccc2)C(OCc2ccccc2)C(COCc2ccccc2)OCc2ccccc2)CC(=O)N1 (stereo unspecified),> 100,> 100,> 100,> 100,–,> 100,> 100,> 100,> 100,> 100,–,–,> 100 µM and 41 µM,–,–,–,90.7 µM and 30.3 µM,–,> 100 µM and 37.9 µM,–
CCCC1C(=O)Nc2cccc3ncn(c23)C1=O (stereo unspecified),> 100,> 100,> 100,> 100,> 100,> 100,> 100,> 100,> 100,> 100,–,–,–,–,–,–,–,–,–,–
COc1ccc(/C=C/C(=O)c2ccc(-n3cc(CN4CCN(c5cc6c(cc5F)c(=O)c(C(=O)O)cn6C5CC5)CC4)nn3)cc2)cc1OC,> 100,> 100,15.5,25.7,8.84,38.3,> 100,> 100,4.46,> 100,0.396,5.09,0.977 µM,3.94,3.7,2.83,11.7 µM,> 100,1.57 µM,6.34
O=S(=O)(O)c1cccc2cccc(N=Nc3c(O)ccc4ccccc34)c12,> 100,> 100,> 100,> 100,> 100,> 100,> 100,> 100,> 100,> 100,–,–,–,–,–,–,–,–,–,–
CC(=O)NC1=C(NCCCl)C(=O)c2ccccc2C1=O,> 100,> 100,> 100,> 100,42.9,> 100,33.7,74,> 100,> 100,–,–,–,–,–,–,–,–,–,–
CC1(C)C(CCO)CC1n1ccc(=O)[nH]c1=O (stereo unspecified),> 100,–,> 100,> 100,> 100,> 100,> 100,> 100,> 100,72.4,–,–,–,–,–,–,–,–,–,–
Cc1ccc(S(=O)(=O)[C@@H](Cl)[C@H]2N=C(Cl)NN=C2c2ccccc2)cc1,89.6,75,36.6,> 100,44,54.3,48.1,50.8,50,> 100,–,–,–,–,–,–,–,–,–,–
COC(=O)C(=O)C(C(=O)C(=O)Nc1cccc([N+](=O)[O-])c1)c1nc2ccc(Cl)cc2[nH]c1=O (stereo unspecified),> 100,> 100,> 100,> 100,> 100,> 100,> 100,> 100,> 100,–,–,–,–,–,–,–,–,–,–,–
O=C(Sc1c(-c2ccccc2)c(=O)n(-c2ccccc2)c(=S)n1-c1ccccc1)c1cccs1,> 100,> 100,> 100,> 100,–,> 100,> 100,> 100,> 100,> 100,–,–,–,–,–,–,–,–,–,–
N=C(N)SCCC(=O)CCSC(=N)N,> 100,> 100,> 100,–,–,> 100,> 100,> 100,> 100,> 100,–,–,–,–,–,–,–,–,–,–
